One block for each compound: values may come before it. No end group written: not given here.
Legend:
[1] = test system: nuclear PtdIns4P and PtdIns5P in differentiated MEL cells; assay: Mass assay of nuclear PtdIns4P and PtdIns5P in differentiated MEL cells; assay type: cell-based, Murine; details: NAC 5 mM or BSO 100 μM for 4 hours, H2O2 500 μM for 15 minutes, vs control-treated cells
Experimental: B) Differentiated MEL cells were treated with NAC (5 mM) or BSO (100 μM), each for 4 hours, or H2O2 (500 μM) for 15 minutes prior to the isolation of intact nuclei. A mass assay was used to determine the levels of PtdIns4P and PtdIns5P. The results are expressed as % of control-treated differentiated MEL cells and are calculated from 3 independent experiments.
MEL, HEK 293 and HT1080 cells were maintained in routine culture using 10% FCS in DMEM. When required, differentiated MEL cells were prepared by the addition of 1.5% DMSO to the culture medium for a period of 4 days. MEL cells were transfected using Effectene (Qiagen), HEK 293 cells with calcium phosphate and HT1080 with LT1 (Mirus corporation). The following plasmids were used: pEGFP, pCDNA3 (both from Clontech), pCDNA3-Flag-MKK6+ and pCDNA3-Flag-MKK6-(from Dr. M. Schmidt, The Netherlands Cancer Institute), pSuper (from Dr. R. Agami, The Netherlands Cancer Institute), pCDNA3-EGFP-IpgD/IpgE, pCDNA3-EGFP-PIP kinase typeIIβ, and RNAi for type II β PIP kinase (termed pSuper-IIβRNAi). The targeting sequence for the latter was […]. Irradiation of the cells with 254 nm UV-C light (0-200 J/m) or gamma rays (0-40 Gy, from a Cesium 137 source) was performed using 6-well or 10 cm plastic petri dishes with a depth of medium covering the cells not exceeding 3-4 mm. Thereafter, the cells were returned to normal culture conditions for 30 minutes before subcellular fractionation was started. To determine long terms effects of UV and gamma irradiation the cells were returned to normal culture conditions for up to 48 hours.
MEL cells were washed, twice in ice cold PBS before their fractionation using a detergent-free hypotonic buffer. This method yields a mixed cytosol and membrane fraction and intact nuclei after separation using a sucrose cushion. MEL cell nuclei were fractionated into nucleoplasm and the CEF using modifications of a previously published method. Briefly, intact MEL cell nuclei were resuspended in ice cold hypotonic buffer (3 mM EDTA, 0.2 mM EGTA and 1 mM DTT pH 7.85, with protease inhibitors) followed by forced passage (12 times) through a 25 gauge needle. After centrifugation (1700 g) the supernatant (the nucleoplasm) was saved. The pellet (CEF) was washed twice before resuspending by sonication in 10 mM TrisHCl, 10% sucrose, 10 mM MgCl2 pH 7.4, with protease inhibitors. The protein content of all fractions was determined using the Bradford reagent (BioRad). PtdIns4P and PtdIns5P were measured using in vitro mass assays employing recombinant type I and type II PIP kinases, respectively. The product PtdIns(4,5)P2 was separated by TLC. The amount of radioactivity found in PtdIns(4,5)P2 was proportional to the amount of PtdInsP isomer in the neomycin affinity-purified lipid extract.
However, no studies have determined a role for nuclear phosphoinositides or defined downstream protein targets mediating phosphoinositide-stress activated pathways. To study changes in nuclear phosphoinositides in response to cellular stress, we used Murine erythroleukaemia (MEL) cells as a model system because preparations of nuclei from these cells have been proven to be of high purity. To visualise changes in phosphoinositides, various independent methods were used. The mass level of both PtdIns4P and PtdIns5P were measured using an assay that relies on the differential in vitro specificities of type I and type II PIP kinases. […] Gamma irradiation (10 Gy) led to a small (approximately 20%) decrease in the PtdIns4P level but no detectable change in the level of PtdIns5P in whole nuclei (FIG. 1a). To determine if nuclear PtdInsPs were regulated by oxidative stress we treated differentiated MEL cells with H2O2, BSO (L-buthionine[S,R]-sulphoximine, a glutamyl-cysteine synthetase inhibitor, which increases intracellular reactive oxygen species (ROS)) or NAC. (N-acetyl-cysteine, which increases cellular glutathione levels and cell' capability to deal with ROS). […]

ING2 = assay: Western blot of endogenous ING2 associated with the CEF of MEL cells; assay type: cell-based, Murine; details: MEL cells; 200 J/m UV; NAC 5 mM 4 hours, wortmannin 200 nM and 5 μM, curcumin 100 μM
Experimental: FIG. 4. A) Exponentially growing MEL cells were irradiated with either 200 J/m of UV light or 10 Gy of gamma radiation. After 30 minutes the CEF was isolated and the subjected to SDS-PAGE followed by transfer of the separated proteins to a nitrocellulose membrane. Western blotting for endogenous ING2 and histone 4 proteins was performed. Representative western blots are shown. B) Exponentially growing MEL cells were incubated in the absence or presence of N-acetyl cysteine (NAC) (5 mM) for 4 hours prior to a control irradiation or exposed to 200 J/m of UV light before the isolation of the CEF. Differentiated MEL cells were incubated in the absence or presence of H2O2 (500 μM) for 15 minutes prior to the isolation of the CEF. Proteins in the CEF were subjected to SDS-PAGE followed by transfer to a nitrocellulose membrane. Western blotting for endogenous ING2 and histone 4 proteins was performed. Representative western blots are shown. C) MEL cells were preincubated with either vehicle, wortmannin (200 nM and 5 μM) or curcumin (100 μM) were irradiated with 200 J/m of UV light. After 30 minutes the CEF was isolated and proteins were subjected to SDS-PAGE followed by transfer to a nitrocellulose membrane. Western blotting for endogenous ING2 and histone 4 proteins was performed. Representative western blots are shown. D) The CEF from transiently transfected MEL cells with either pSuper or pSuper-IIβRNAi was prepared. Proteins in the CEF were subjected to SDS-PAGE followed by transfer to a nitrocellulose membrane. […] Proteins were analysed by standard western blotting procedures employing the following antibodies: anti-tubulin and anti-flag (both from Sigma), anti-actin (Chemicon International), anti-histone 4 (Upstate Biotechnology), anti-phospho p54, anti-phospho p46, anti-phospho p38, total p54, total p46 and total p38 (all from Cell Signalling Technology) anti-ING2, anti EGFP (Clontech), anti-type II β PIP kinase, anti-GST and anti-myc (both generated in house).

type II β PIP kinase = assay: Type II PIP kinase activity in immunoprecipitates using PtdIns5P as substrate; assay type: cell-based
Experimental: FIG. 3. A) MEL cells were either untransfected or transfected to express myc-type II b PIP kinase. After 40 hours the cells some of the cells were irradiated with 200 J/m of UV light before reculturing for varying times indicated in the figure. The cells were collected and endogenous type II PIP kinase was immunoprecipitated from whole cell lysates using an anti-pan type II b PIP kinase antibody or an anti-myc antibody. Type II PIP kinase activity in the immunoprecipitates was determined using PtdIns5P as the substrate. The results are calculated from 3 independent experiments.
To test this hypothesis endogenous type II PIP kinases were immunoprecipitated from control-treated and UV-irradiated MEL cells and their activities were measured using PtdIns5P as a substrate. […] As the antibody used to immunoprecipitate recognises all type II PIP kinase isoforms, we transfected MEL cells with myc-tagged type II β PIP kinase and measured its activity in immunoprecipitates in response to UV irradiation. […] UV irradiation is known to regulate both stress-activated protein kinases (SAPKs) and mitogen-activated protein kinases (MAPKs) and therefore we determined if any of these UV induced pathways impinged on type II β PIP kinase activity. […] Therefore we assessed whether activation of the p38 pathway alone could mediate type II β PIP kinase inhibition. […]

MEL cells = assay: MEL cell viability and cell cycle profile; assay type: cell-based, Murine; details: compound alone
Experimental: Ethanol fixed cells were incubated with prodium iodide (20 μg/ml) and RNAse (10 μg/ml) before cell cycle analysis by flow cytometry. Proteins were analysed by standard western blotting procedures employing the following antibodies: anti-tubulin and anti-flag (both from Sigma), anti-actin (Chemicon International), anti-histone 4 (Upstate Biotechnology), anti-phospho p54, anti-phospho p46, anti-phospho p38, total p54, total p46 and total p38 (all from Cell Signalling Technology) anti-ING2, anti EGFP (Clontech), anti-type II β PIP kinase, anti-GST and anti-myc (both generated in house).
To investigate the sub-nuclear localisation of UV-induced nuclear PtdInsPs, we fractionated nuclei to generate nucleoplasm (containing nuclear membranes and soluble nuclear material) and the chromatin enriched fraction (CEF) (FIG. 1c inset). […] Thus, the PtdInsP pool present in the CEF is a target for regulation in response to cellular stress.

[2] = target: T1, PtdIns(4,5)P—F PH domain complex (Homo sapiens, UniProt P51178); assay: Displacement of PtdIns(4,5)P—F from the PH domain complex by unlabelled lipids; assay type: binding
T1 construct: GST-tagged PLCδ1 Pleckstrin homology (PH) domain protein expressed and purified in-house in E. Coli; made in house; host or cells: E. coli
T1 sequence (P51178 21-130 limits assumed): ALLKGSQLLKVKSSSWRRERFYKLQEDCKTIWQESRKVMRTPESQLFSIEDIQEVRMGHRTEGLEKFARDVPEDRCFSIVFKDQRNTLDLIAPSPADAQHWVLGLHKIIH
Experimental: FIG. 7. A 10 nM-1 uM PtdIns(4,5)P—F PH domain complex was incubated with increasing concentrations of unlabelled PtdIns(4,5) P2 (circles) and unlabelled PtdIns5P (squares). The unlabelled product disrupts the complex fully at 1 mM, substrate has no effect at 16 mM, (duplicates).
FIG. 20: A PtdIns(4,5)P—F PH domain complex (10 nM/500 nM) was incubated with increasing concentrations of unlabelled PtdIns(4,5) P2 (triangles) and unlabelled PtdIns4P (diamonds). The unlabelled product disrupts the complex fully at 750 nM, substrate has no effect at 5 μM.

[3] = test system: PtdIns(4,5)P2 in HeLa cells; assay: PtdIns(4,5)P2 levels visualised with GFP-PH domain of PLCdelta1 probe in HeLa cells; assay type: cell-based; details: transient, levels quickly recover
Source text: Changes in intracellular PtdIns(4,5)P2 levels following stimulation with neurokinin A were visualised in real time using a fusion protein of GFP and the PH domain of PLCdelta1 as a probe. GFP PLC delta 1 is a highly specific in vivo probe for PIP2 in cells.
HeLa cells were transiently transfected with an expression plasmid encoding a fusion protein of GFP and the PH domain of PLCdelta1.
HeLa cells were transiently transfected with an expression plasmid encoding a fusion protein of GFP and the pleckstrin homology domain of PLCdelta1. GFP PLC delta1 is a highly specific in vivo probe for PtdIns(4,5)P2 in cells. Results are in FIG. 10.

Compound: CCCCS(=N)(=O)CCC(N)C(=O)O [BSO, L-buthionine[S,R]-sulphoximine]
- level of nuclear PtdIns4P [1]: increased
- level of nuclear PtdIns5P [1]: increased

Compound: CC(=O)N[C@@H](CS)C(=O)O [NAC, N-acetyl-cysteine]
- level of nuclear PtdIns4P [1]: lowered
- level of nuclear PtdIns5P [1]: lowered
- UV-induced translocation of endogenous ING2 to the CEF (ING2): did not block

Compound: C[S+]([O-])c1ccc(-c2nc(-c3ccncc3)c(-c3ccc(F)cc3)[nH]2)cc1 (centres unmarked) [SB 203580]
- UV light-induced inhibition of type II β PIP kinase activity (type II β PIP kinase; pre-treatment of MEL cells): blocked

Compound: COc1ccc(C[C@H]2NC[C@H](O)[C@H]2OC(C)=O)cc1 [anisomycin]
- inhibition of type II β PIP kinase activity (type II β PIP kinase; treatment of cells): approximately 50%

Compound: COC[C@H]1OC(=O)c2coc3c2[C@@]1(C)C1=C(C3=O)[C@@H]2CCC(=O)[C@@]2(C)C[C@H]1OC(C)=O [wortmannin]
- effect on the cell cycle profile (MEL cells; MEL cells): no effect
- effect on MEL cell viability (MEL cells): no effect

- effect on the complex ([2]; at 5 μM, PtdIns(4,5)P—F PH domain complex (10 nM/500 nM) (FIG. 20)): no effect
Compound: D-myo-Phosphatidylinositol 4-phosphate [PtdIns4P]

- effect on the complex ([2]; 10 nM-1 uM PtdIns(4,5)P—F PH domain complex (FIG. 7)): no effect
Compound: PtdIns5P

Compound: neurokinin A (HKTDSFVGLM; ends and bridges not checked; UniProt P20366 98-107, looked up) [growth factor used to stimulate PtdIns(4,5)P2 depletion]
- PtdIns(4,5)P2 levels (GFP-PH probe at plasma membrane) after growth factor stimulation [3]: depletion

- concentration at which unlabelled lipid disrupts the complex fully ([2]; 10 nM-1 uM PtdIns(4,5)P—F PH domain complex, duplicates (FIG. 7)): 1 mM
- concentration at which unlabelled lipid disrupts the complex fully ([2]; PtdIns(4,5)P—F PH domain complex (10 nM/500 nM) (FIG. 20)): 0.00075 mM
Compound: phosphatidylinositol 4,5-bisphosphate [PtdIns(4,5) P2]

Reference: patent US20100092456A1, “METHODS OF TREATMENT” (priority 2006, published 2010)
